# Experimental data published in ChEMBL document CHEMBL2331144, “Synthesis and anticancer activity of analogues of phenstatin, with a phenothiazine A-ring, as a new class of microtubule-targeting agents” (Bioorg Med Chem Lett, 2013).
# Assays:
# K562 = assay: Growth inhibition of human K562 cells after 48 hrs by sulforhodamine B assay; assay type: functional; details: K562, 48 h
# Ovis aries = species on record: Ovis aries; assay: Inhibition of sheep brain tubulin polymerization at 100 uM using DAPI by fluorimetry
# KM12 = assay: Growth inhibition of human KM12 cells after 48 hrs by sulforhodamine B assay; assay type: functional; details: KM12, 48 h
# MDA-MB-435 = assay: Growth inhibition of human MDA-MB-435 cells after 48 hrs by sulforhodamine B assay; assay type: functional; details: MDA-MB-435, 48 h
# UACC-257 = assay: Growth inhibition of human UACC257 cells after 48 hrs by sulforhodamine B assay; assay type: functional; details: UACC-257, 48 h
# SF-295 = assay: Growth inhibition of human SF295 cells after 48 hrs by sulforhodamine B assay; assay type: functional; details: SF-295, 48 h
# ACHN = assay: Growth inhibition of human ACHN cells after 48 hrs by sulforhodamine B assay; assay type: functional
# IGROV-1 = assay: Growth inhibition of human IGROV1 cells after 48 hrs by sulforhodamine B assay; assay type: functional; details: IGROV-1, 48 h
# SK-MEL-28 = assay: Growth inhibition of human SK-MEL-28 cells after 48 hrs by sulforhodamine B assay; assay type: functional; details: SK-MEL-28, 48 h
# A549 = assay: Growth inhibition of human A549/ATCC cells after 48 hrs by sulforhodamine B assay; assay type: functional; details: A549, 48 h
# A498 = assay: Growth inhibition of human A498 cells after 48 hrs by sulforhodamine B assay; assay type: functional; details: A498, 48 h
# T47D = assay: Growth inhibition of human T47D cells after 48 hrs by sulforhodamine B assay; assay type: functional
# HOP-62 = assay: Growth inhibition of human HOP62 cells after 48 hrs by sulforhodamine B assay; assay type: functional; details: HOP-62, 48 h
# NCI-H522 = assay: Growth inhibition of human NCI-H522 cells after 48 hrs by sulforhodamine B assay; assay type: functional; details: NCI-H522, 48 h
# [1] = Growth inhibition of human Hs 578T cells after 48 hrs by sulforhodamine B assay; assay type: functional
# UACC-62 = assay: Growth inhibition of human UACC62 cells after 48 hrs by sulforhodamine B assay; assay type: functional; details: UACC-62, 48 h
# SR = assay: Growth inhibition of human SR cells after 48 hrs by sulforhodamine B assay; assay type: functional
# MCF7 = assay: Growth inhibition of human MCF7 cells after 48 hrs by sulforhodamine B assay; assay type: functional; details: MCF7, 48 h
# [2] = Growth inhibition of human NCI-ADR-RES cells after 48 hrs by sulforhodamine B assay; assay type: functional
# MDA-MB-468 = assay: Growth inhibition of human MDA-MB-468 cells after 48 hrs by sulforhodamine B assay; assay type: functional; details: MDA-MB-468, 48 h
# NCI-H23 = assay: Growth inhibition of human NCI-H23 cells after 48 hrs by sulforhodamine B assay; assay type: functional; details: NCI-H23, 48 h
# [3] = Inhibition of sheep brain tubulin polymerization using DAPI by fluorimetry; design: species or system Ovis aries
# MOLT-4 = assay: Growth inhibition of human MOLT4 cells after 48 hrs by sulforhodamine B assay; assay type: functional; details: MOLT-4, 48 h
# SK-OV-3 = assay: Growth inhibition of human SKOV3 cells after 48 hrs by sulforhodamine B assay; assay type: functional; details: SK-OV-3, 48 h
# Malme-3M = assay: Growth inhibition of human MALME-3M cells after 48 hrs by sulforhodamine B assay; assay type: functional
# OVCAR-3 = assay: Growth inhibition of human OVCAR3 cells after 48 hrs by sulforhodamine B assay; assay type: functional; details: OVCAR-3, 48 h
# RXF 393 = assay: Growth inhibition of human RXF393 cells after 48 hrs by sulforhodamine B assay; assay type: functional; details: RXF 393, 48 h
# RPMI-8226 = assay: Growth inhibition of human RPMI8226 cells after 48 hrs by sulforhodamine B assay; assay type: functional; details: RPMI-8226, 48 h
# [4] = Growth inhibition of human HCC2998 cells after 48 hrs by sulforhodamine B assay; assay type: functional; details: HCC 2998, 48 h
# OVCAR-4 = assay: Growth inhibition of human OVCAR4 cells after 48 hrs by sulforhodamine B assay; assay type: functional; details: OVCAR-4, 48 h
# [5] = Growth inhibition of human EKVX cells after 48 hrs by sulforhodamine B assay; assay type: functional
# PC-3 = assay: Growth inhibition of human PC3 cells after 48 hrs by sulforhodamine B assay; assay type: functional; details: PC-3, 48 h
# SN12C = assay: Growth inhibition of human SN12C cells after 48 hrs by sulforhodamine B assay; assay type: functional
# DU-145 = assay: Growth inhibition of human DU145 cells after 48 hrs by sulforhodamine B assay; assay type: functional; details: DU-145, 48 h
# OVCAR-5 = assay: Growth inhibition of human OVCAR5 cells after 48 hrs by sulforhodamine B assay; assay type: functional; details: OVCAR-5, 48 h
# HT-29 = assay: Growth inhibition of human HT-29 cells after 48 hrs by sulforhodamine B assay; assay type: functional; details: HT-29, 48 h
# SNB-75 = assay: Growth inhibition of human SNB75 cells after 48 hrs by sulforhodamine B assay; assay type: functional; details: SNB-75, 48 h
# LOX IMVI = assay: Growth inhibition of human LOXIMVI cells after 48 hrs by sulforhodamine B assay; assay type: functional
# NCI-H460 = assay: Growth inhibition of human NCI-H460 cells after 48 hrs by sulforhodamine B assay; assay type: functional; details: NCI-H460, 48 h
# 786-0 = assay: Growth inhibition of human 786-0 cells after 48 hrs by sulforhodamine B assay; assay type: functional; details: 786-0, 48 h
# HCT-116 = assay: Growth inhibition of human HCT116 cells after 48 hrs by sulforhodamine B assay; assay type: functional; details: HCT-116, 48 h
# CAKI-1 = assay: Growth inhibition of human CAKI-1 cells after 48 hrs by sulforhodamine B assay; assay type: functional; details: CAKI-1, 48 h
# MDA-MB-231 = assay: Growth inhibition of human MDA-MB-231 cells after 48 hrs by sulforhodamine B assay; assay type: functional; details: MDA-MB-231, 48 h
# SK-MEL-5 = assay: Growth inhibition of human SK-MEL-5 cells after 48 hrs by sulforhodamine B assay; assay type: functional; details: SK-MEL-5, 48 h
# HCT-15 = assay: Growth inhibition of human HCT15 cells after 48 hrs by sulforhodamine B assay; assay type: functional; details: HCT-15, 48 h
# SF-268 = assay: Growth inhibition of human SF268 cells after 48 hrs by sulforhodamine B assay; assay type: functional; details: SF-268, 48 h
# COLO 205 = assay: Growth inhibition of human COLO205 cells after 48 hrs by sulforhodamine B assay; assay type: functional; details: COLO 205, 48 h
# HOP-92 = assay: Growth inhibition of human HOP92 cells after 48 hrs by sulforhodamine B assay; assay type: functional; details: HOP-92, 48 h
# UO-31 = assay: Growth inhibition of human UO31 cells after 48 hrs by sulforhodamine B assay; assay type: functional; details: UO-31, 48 h
# TK-10 = assay: Growth inhibition of human TK10 cells after 48 hrs by sulforhodamine B assay; assay type: functional; details: TK-10, 48 h
# CCRF-CEM = assay: Growth inhibition of human CCRF-CEM cells after 48 hrs by sulforhodamine B assay; assay type: functional
# SF-539 = assay: Growth inhibition of human SF539 cells after 48 hrs by sulforhodamine B assay; assay type: functional; details: SF-539, 48 h
# M14 = assay: Growth inhibition of human M14 cells after 48 hrs by sulforhodamine B assay; assay type: functional; details: M14, 48 h
# BT-549 = assay: Growth inhibition of human BT549 cells after 48 hrs by sulforhodamine B assay; assay type: functional; details: BT-549, 48 h
# HL-60(TB) = assay: Growth inhibition of human HL-60(TB) cells after 48 hrs by sulforhodamine B assay; assay type: functional; details: HL-60, 48 h
# SK-MEL-2 = assay: Growth inhibition of human SK-MEL-2 cells after 48 hrs by sulforhodamine B assay; assay type: functional; details: SK-MEL-2, 48 h
# OVCAR-8 = assay: Growth inhibition of human OVCAR8 cells after 48 hrs by sulforhodamine B assay; assay type: functional; details: OVCAR-8, 48 h
# SW-620 = assay: Growth inhibition of human SW620 cells after 48 hrs by sulforhodamine B assay; assay type: functional; details: SW-620, 48 h
smiles,measurement,setting,value
O=C(c1ccc2c(c1)Sc1ccccc1N2)c1c[nH]c2ccccc12,GI50,K562,395 nM
same,inhibition,Ovis aries,66%
same,GI50,KM12,365 nM
same,GI50,MDA-MB-435,112 nM
same,GI50,UACC-257,581 nM
same,GI50,SF-295,323 nM
same,GI50,ACHN,1780 nM
same,GI50,IGROV-1,620 nM
same,GI50,SK-MEL-28,647 nM
same,GI50,A549,634 nM
same,GI50,A498,251 nM
same,GI50,T47D,502 nM
same,GI50,HOP-62,670 nM
same,GI50,NCI-H522,248 nM
same,GI50,[1],702 nM
same,GI50,UACC-62,532 nM
same,GI50,SR,382 nM
same,GI50,MCF7,293 nM
same,GI50,[2],247 nM
same,GI50,MDA-MB-468,314 nM
same,GI50,NCI-H23,943 nM
same,IC50,[3],38900 nM
same,GI50,MOLT-4,3750 nM
same,GI50,SK-OV-3,533 nM
same,GI50,Malme-3M,997 nM
same,GI50,OVCAR-3,404 nM
same,GI50,RXF 393,1270 nM
same,GI50,RPMI-8226,761 nM
same,GI50,[4],976 nM
same,GI50,OVCAR-4,16500 nM
same,GI50,[5],11600 nM
same,GI50,PC-3,654 nM
same,GI50,SN12C,888 nM
same,GI50,DU-145,1420 nM
same,GI50,OVCAR-5,1750 nM
same,GI50,HT-29,368 nM
same,GI50,SNB-75,326 nM
same,GI50,LOX IMVI,446 nM
same,GI50,NCI-H460,429 nM
same,GI50,786-0,1900 nM
same,GI50,HCT-116,404 nM
same,GI50,CAKI-1,462 nM
same,GI50,MDA-MB-231,1110 nM
same,GI50,SK-MEL-5,408 nM
same,GI50,HCT-15,489 nM
same,GI50,SF-268,1500 nM
same,GI50,COLO 205,435 nM
same,GI50,HOP-92,970 nM
same,GI50,UO-31,1030 nM
same,GI50,TK-10,2140 nM
same,GI50,CCRF-CEM,380 nM
same,GI50,SF-539,576 nM
same,GI50,M14,372 nM
same,GI50,BT-549,398 nM
same,GI50,HL-60(TB),382 nM
same,GI50,SK-MEL-2,397 nM
same,GI50,OVCAR-8,1040 nM
same,GI50,SW-620,406 nM
COc1ccc(C(=O)N2c3ccccc3Sc3ccccc32)cc1F,GI50,K562,143 nM
same,inhibition,Ovis aries,95%
same,GI50,KM12,239 nM
same,GI50,MDA-MB-435,35 nM
same,GI50,UACC-257,671 nM
same,GI50,SF-295,229 nM
same,GI50,ACHN,1890 nM
same,GI50,IGROV-1,572 nM
same,GI50,SK-MEL-28,543 nM
same,GI50,A549,382 nM
same,GI50,A498,211 nM
same,GI50,T47D,468 nM
same,GI50,HOP-62,539 nM
same,GI50,NCI-H522,102 nM
same,GI50,[1],285 nM
same,GI50,UACC-62,518 nM
same,GI50,SR,271 nM
same,GI50,MCF7,316 nM
same,GI50,[2],112 nM
same,GI50,MDA-MB-468,249 nM
same,GI50,NCI-H23,393 nM
same,IC50,[3],9480 nM
same,GI50,MOLT-4,442 nM
same,GI50,SK-OV-3,322 nM
same,GI50,Malme-3M,991 nM
same,GI50,OVCAR-3,312 nM
same,GI50,RXF 393,272 nM
same,GI50,RPMI-8226,259 nM
same,GI50,[4],314 nM
same,GI50,OVCAR-4,6560 nM
same,GI50,[5],964 nM
same,GI50,PC-3,419 nM
same,GI50,SN12C,760 nM
same,GI50,DU-145,303 nM
same,GI50,OVCAR-5,522 nM
same,GI50,HT-29,251 nM
same,GI50,SNB-75,222 nM
same,GI50,LOX IMVI,590 nM
same,GI50,NCI-H460,372 nM
same,GI50,786-0,590 nM
same,GI50,HCT-116,375 nM
same,GI50,CAKI-1,561 nM
same,GI50,MDA-MB-231,570 nM
same,GI50,SK-MEL-5,335 nM
same,GI50,HCT-15,405 nM
same,GI50,SF-268,819 nM
same,GI50,COLO 205,244 nM
same,GI50,HOP-92,209 nM
same,GI50,UO-31,2220 nM
same,GI50,TK-10,586 nM
same,GI50,CCRF-CEM,300 nM
same,GI50,SF-539,290 nM
same,GI50,M14,216 nM
same,GI50,BT-549,604 nM
same,GI50,HL-60(TB),267 nM
same,GI50,SK-MEL-2,355 nM
same,GI50,OVCAR-8,384 nM
same,GI50,SW-620,358 nM
